This test addresses T1, human 11β-HSD2 (Homo sapiens, UniProt P80365).
T1 construct: CHO cells stably transfected with the full-length gene coding for human 11β-HSD2 were used; expressed in transfected cells; host or cells: CHO
T1 sequence (P80365 1-405): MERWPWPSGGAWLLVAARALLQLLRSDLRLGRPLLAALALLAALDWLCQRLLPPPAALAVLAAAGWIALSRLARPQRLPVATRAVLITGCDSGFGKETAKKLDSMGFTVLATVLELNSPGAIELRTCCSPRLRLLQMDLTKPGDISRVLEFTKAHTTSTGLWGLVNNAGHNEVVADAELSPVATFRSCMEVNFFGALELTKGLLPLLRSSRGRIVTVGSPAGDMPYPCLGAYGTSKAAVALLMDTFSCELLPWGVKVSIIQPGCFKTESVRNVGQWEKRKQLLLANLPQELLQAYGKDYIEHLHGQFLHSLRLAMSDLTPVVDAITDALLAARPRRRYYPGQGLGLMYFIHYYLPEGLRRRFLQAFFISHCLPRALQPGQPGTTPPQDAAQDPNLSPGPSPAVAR
Nature of the test: Cellular in vitro 11β-HSD2 enzyme inhibition assay (CHO cells, TLC/phosphoimager). Type of test: cell-based. The conditions noted are these: CHO cells stably transfected with human 11β-HSD2; Table 1. The procedure: Cellular In Vitro 11β-HSD2 Enzyme Inhibition Assay
For measurement of inhibition of 11β-HSD2, CHO cells stably transfected with the full-length gene coding for human 11β-HSD2 were used. Assays were carried out in 96-well microplates containing 1×10^5 cells/well. Controls and compounds were plated as above, so that the final DMSO concentration in each well was 1%.
The assay solutions were transferred to glass tubes and 20 μL ethyl acetate added to each tube. Each tube was vortexed thoroughly and the upper layer containing the tritiated steroid transferred to a fresh glass tube. The solvent was evaporated by placing the tubes in a heating block at 65° C. under a stream of Nitrogen gas. 20 μL ethanol was added to each of the dried samples and vortexed briefly. Each sample was applied to a silica TLC plate and the plate dried. The plate was placed vertically in a glass tank containing 92% chloroform:8% ethanol and the solvent allowed to rise up the plate. The plate was dried, placed in an imaging cassette, and overlayed with a tritium imaging plate for 1-2 days. The amount of enzyme inhibition in each sample was determined by measuring the intensity of the substrate and product spots using a phosphoimager.
IC50 values for inhibitors were determined as described for 118-HSD1.
As to `O=C(c1cc(-c2ccccc2)sc1Cl)N1CCCCC1` [AA-30], the IC50 (usually the concentration needed to halve the response being measured) is more than 10 µM.

Compound `CC1(C)CC2CC(C)(CN2C(=O)c2cc(-c3ccccc3)sc2Cl)C1` (centres unmarked) [CC-02] came in with an IC50 of more than 10 µM.

In turn, `O=C(c1cc(-c2ccccn2)sc1Cl)N1CCCCCC1` [EE-12] came in with an IC50 of more than 10 µM.

As to `O=C(c1csc(-n2ccnc2)c1)N1CCCC2CCCCC21` (centres unmarked) [FF-06, (5-Imidazol-1-yl-thiophen-3-yl)-(octahydro-quinolin-1-yl)-methanone], the IC50 is more than 10 µM.

`CC1(C)CC2CC(C)(CN2C(=O)c2csc(-c3ccncc3)c2)C1` (centres unmarked) [GG-01] had an IC50 of more than 10 µM.

Values taken from patent US8614209B2, “Amido-thiophene compounds and their use” (The University of Edinburgh, priority 2008, dated 2013).
